Earlier results as cited in patent US20220008839A1, “SEMI-AQUEOUS METHOD FOR EXTRACTING A SUBSTANCE” (Clean Imagineering LLC, priority 2020, published 2022).

Row | solubility in ethyl acetate (ethyl acetate) | water solubility (at 20° C.) | SMILES | solubility in ethanol (an alcohol such as ethanol) | solubility in water
1 | – | – | C=C(C)[C@@H]1CC[C@]2(CO)CC[C@]3(C)[C@H](CC[C@@H]4[C@@]5(C)CC[C@H](O)C(C)(C)[C@@H]5CC[C@]43C)[C@@H]12 [Betulin] | highly soluble | insoluble in water
2 | freely soluble | – | CC(C)=CCC/C(C)=C/C=C/C(C)=C/C=C/C(C)=C/C=C/C=C(C)/C=C/C=C(C)/C=C/C=C(\C)CCC=C(C)C [Lycopene] | – | insoluble in water
3 | – | 86 mg/mL | CCOC(C)=O [ethyl acetate] | – | –
